Reference: article PMC7321178 (Molecules, 2020)
“And” between values parts separate entries of the source, which are not always exact repeats. Equal entries are not always repeated. Where two headings read alike, the source gives them in different places.

Assays:
[1] = biological target: T1, BuChE from equine serum (eqBuChE) (Equus caballus, UniProt P81908); test: biochemical; conditions: for inhibition at 10 µM: 10 µM compound concentration, mean ± standard deviation, read-out: % Inhibition +/- SD (eqBuChE)
T1 construct: BuChE obtained from equine serum (eqBuChE); purchased Sigma–Aldrich (Steinheim, Germany); host or cells: horse serum
Procedure: (§1) Compounds selected through virtual screening were tested for their ability to inhibit the activity of selected biological targets. The cholinesterase-inhibitory potency of the compounds was evaluated according to Ellman’s method using AChE obtained from E. electricus (eeAChE) and BuChE obtained from equine serum (eqBuChE).
(§2) The following reagents were purchased from Sigma–Aldrich (Steinheim, Germany): 5,5′-dithiobis-(2-nitrobenzoic acid) (DNTB), acetylthiocholine iodide (ATC), butyrylthiocholine iodide (BTC), AChE from Electrophorus electricus, and BuChE from horse serum. […] The biological assay was performed using Ellman’s method which was modified for 24-well plates. For this assay, 25 µL of the tested compounds or water (in the blank samples) and 20 µL of the enzyme in 765 µL of the buffer were incubated for 5 min at 25 °C before starting the reaction. Then, 20 µL of DTNB and 20 µL of the ATC/BTC solutions were added. […] To determine the IC50 value, the absorbance measured at six different concentrations of the inhibitor was converted to % inhibition of the enzyme and plotted against the applied concentration of the inhibitor, using nonlinear regression (GraphPad Prism 5; GraphPad Software, San Diego, CA, USA). […] All the reactions were performed in triplicate. Data are expressed as the mean ± SEM.

[2] = biological target: T2, AChE from Electrophorus electricus (eeAChE) (Electrophorus electricus, UniProt O42275); test: biochemical; conditions: for inhibition at 10 µM: read-out: % Inhibition +/- SD (eeAChE)
T2 construct: purchased Sigma–Aldrich (Steinheim, Germany)
Procedure: as §1, §2

[3] = biological target: T3, eqBuChE (Equus caballus, UniProt P81908); test: Kinetic studies of eqBuChE inhibition (Lineweaver-Burk, Cornish-Bowden plots); type: biochemical; conditions: substrate butyrylthiocholine
T3 construct: BuChE obtained from equine serum (eqBuChE); purchased Sigma–Aldrich (Steinheim, Germany); host or cells: horse serum
Procedure: […]. This was carried out by making use of the calculated values of Vmax and Km of the Michaelis–Menten kinetics and further through analyzing the Lineweaver–Burk and Cornish-Bowden reciprocal plots. […] […].
Kinetic studies were carried out by following Ellman’s method modified for 96-well plates, using different concentrations of the substrate. The stock solutions of ATC and BTC (0.02125 M) were prepared in water and diluted before use. […]. Lineweaver–Burk and Cornish-Bowden plots were generated using linear regression in GraphPad Prism 5 (GraphPad Software, San Diego, CA, USA). Each experiment was performed in triplicate.

[4] = biological target: T4, eeAChE (Electrophorus electricus, UniProt O42275); test: Kinetic studies of eeAChE inhibition (Lineweaver-Burk, Cornish-Bowden plots); type: biochemical; conditions: substrate acetylthiocholine
T4 construct: purchased Sigma–Aldrich (Steinheim, Germany)
Procedure: This was carried out by making use of the calculated values of Vmax and Km of the Michaelis–Menten kinetics and further through analyzing the Lineweaver–Burk and Cornish-Bowden reciprocal plots.
Kinetic studies were carried out by following Ellman’s method modified for 96-well plates, using different concentrations of the substrate. The stock solutions of ATC and BTC (0.02125 M) were prepared in water and diluted before use. The aqueous stock solutions of enzymes (5 U/mL) were diluted to a final concentration of 0.384 U/mL. For each concentration of the test compounds, ATC or BTC was used at a concentration of 0.3, 0.24, 0.18, 0.12, 0.06, and 0.04 mM in the wells. Lineweaver–Burk and Cornish-Bowden plots were generated using linear regression in GraphPad Prism 5 (GraphPad Software, San Diego, CA, USA). Each experiment was performed in triplicate.

[5] = mean ± SEM of at least three experiments
[6] = read-out: IC50 eqBuChE [µM] +/- SEM
[7] = read-out: IC50 eeAChE [µM] +/- SEM

T2 sequence (O42275 24-633): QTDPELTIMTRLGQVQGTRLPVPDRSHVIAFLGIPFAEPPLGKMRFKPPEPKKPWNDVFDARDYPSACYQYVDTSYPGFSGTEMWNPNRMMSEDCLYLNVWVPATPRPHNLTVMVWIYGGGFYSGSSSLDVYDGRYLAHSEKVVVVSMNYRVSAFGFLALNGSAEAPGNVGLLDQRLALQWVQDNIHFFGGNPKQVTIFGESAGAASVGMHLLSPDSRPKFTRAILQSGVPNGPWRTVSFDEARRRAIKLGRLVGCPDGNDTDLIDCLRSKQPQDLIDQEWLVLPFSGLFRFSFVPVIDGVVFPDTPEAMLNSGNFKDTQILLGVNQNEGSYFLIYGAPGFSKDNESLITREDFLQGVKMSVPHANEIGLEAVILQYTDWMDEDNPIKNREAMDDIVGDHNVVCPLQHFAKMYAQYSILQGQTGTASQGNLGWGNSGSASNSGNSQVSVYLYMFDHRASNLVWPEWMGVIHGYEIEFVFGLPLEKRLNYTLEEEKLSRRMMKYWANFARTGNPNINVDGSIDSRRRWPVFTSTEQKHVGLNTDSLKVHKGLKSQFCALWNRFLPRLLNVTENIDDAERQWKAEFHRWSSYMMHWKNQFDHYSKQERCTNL
T1 sequence (P81908 whole entry): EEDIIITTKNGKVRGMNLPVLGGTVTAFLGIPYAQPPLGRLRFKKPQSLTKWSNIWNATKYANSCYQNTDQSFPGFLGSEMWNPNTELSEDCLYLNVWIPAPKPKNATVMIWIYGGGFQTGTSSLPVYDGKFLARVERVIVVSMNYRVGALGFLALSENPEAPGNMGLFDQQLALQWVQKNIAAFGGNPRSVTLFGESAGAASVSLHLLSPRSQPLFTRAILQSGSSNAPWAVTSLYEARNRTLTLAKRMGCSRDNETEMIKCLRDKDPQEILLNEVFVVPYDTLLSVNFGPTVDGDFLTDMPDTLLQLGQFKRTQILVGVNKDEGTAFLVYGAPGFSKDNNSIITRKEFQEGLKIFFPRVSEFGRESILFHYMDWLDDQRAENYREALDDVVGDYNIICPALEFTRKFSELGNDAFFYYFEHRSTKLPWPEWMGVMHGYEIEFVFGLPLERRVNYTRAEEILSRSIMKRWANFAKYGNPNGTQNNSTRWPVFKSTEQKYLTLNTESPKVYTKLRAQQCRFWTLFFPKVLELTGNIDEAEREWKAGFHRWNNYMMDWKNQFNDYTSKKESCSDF
T4 sequence (O42275 24-633): as the sequence (O42275 24-633) above
T3 sequence (P81908 whole entry): as the sequence (P81908 whole entry) above

For `C(#CCN1c2cccnc2Sc2cccnc21)CN1CCCC1` [Compound 1, 10-(4-Pyrrolidin-1-yl-but-2-ynyl)-1,6-diazaphenothiazine], the inhibition at 10 µM [1] was 65.4 ± 3%, the IC50 [1, 5] was 5.75 ± 0.164 µM and the inhibition at 10 µM [2] was 45.4 ± 9.8%.
For `C(#CCN1c2cccnc2Sc2cccnc21)CN1CCCCC1` [Compound 2, 10-(4-Piperidin-1-yl-but-2-ynyl)-1,6-diazaphenothiazine], the inhibition at 10 µM [1] was 56.6 ± 2.4%, the IC50 [1, 5] was 8.94 ± 0.239 µM and the IC50 [2, 5] was 8.31 ± 0.315 µM. It also gave an inhibition at 10 µM [2] of 60.3 ± 8.8%.
`C(#CCN1c2cccnc2Sc2cccnc21)CN1CCOCC1` [Compound 3, 10-(4-Morpholin-4-yl-but-2-ynyl)-1,6-diazaphenothiazine] showed an inhibition at 10 µM [1] of 63.6 ± 2.4%, an IC50 [1, 5] of 9.25 ± 0.275 µM and an inhibition at 10 µM [2] of 13.7 ± 1.5%.
`CN1CCCCC1CCN1c2cccnc2Sc2cccnc21` (stereo not shown) [Compound 4] was tested, and the inhibition at 10 µM [1] was 57 ± 7.4%, the IC50 [1, 5] was 9.49 ± 0.33 µM and the inhibition at 10 µM [2] was 22.4 ± 1.1%.
`O=C1c2ccccc2C(=O)N1CCCN1c2cccnc2Sc2cccnc21` [Compound 5] showed an inhibition at 10 µM [1] of 52.5 ± 5.9%, an IC50 [1, 5] of 10.1 ± 0.441 µM and an inhibition at 10 µM [2] of 7.3 ± 0.9%.
`CN(C)CCCN1c2cnccc2Sc2cccnc21` [Compound 6] was tested, and the inhibition at 10 µM [1] was 85.8 ± 0.5%, the IC50 [1, 6] was 0.87 µM and 0.865 µM and the inhibition at 10 µM [2] was 20.4 ± 3.6%.
For `C(#CCN1c2cnccc2Sc2cccnc21)CN1CCCC1` [Compound 7], the inhibition at 10 µM [1] was 91.1 ± 0.8%, the IC50 [1, 6] was 0.929 ± 0.016 µM and the inhibition at 10 µM [2] was 57.3 ± 0.4%. For the same molecule, the IC50 [2, 7] was 10 ± 0.604 µM.
Molecule `c1cnc2c(c1)Sc1ccncc1N2CCN1CCCCC1` [Compound 8] has an inhibition at 10 µM [1] of 66 ± 3.4%, an IC50 [1, 6] of 4.44 ± 0.049 µM and an inhibition at 10 µM [2] of 33.5 ± 1.6%.
Molecule `CN1CCCCC1CCN1c2cnccc2Sc2cccnc21` (stereo not shown) [Compound 9] has an inhibition at 10 µM [1] of 76.4 ± 0.2%, an IC50 [1, 6] of 3.03 ± 0.072 µM and an inhibition at 10 µM [2] of 58.1 ± 4.1%. For the same molecule, the IC50 [2, 7] was 6.55 ± 0.177 µM.
Molecule `O=C1c2ccccc2C(=O)N1CCCN1c2cnccc2Sc2cccnc21` [Compound 10] has an inhibition at 10 µM [1] of 71.9 ± 4.3%, an IC50 [1, 6] of 3.67 ± 0.054 µM and an inhibition at 10 µM [2] of 49.6 ± 1.3%.
`CCN(CC)CC#CCN1c2ccncc2Sc2ccncc21` [Compound 11] showed an inhibition at 10 µM [1] of 20.7 ± 0.9% and an inhibition at 10 µM [2] of 20.1 ± 1.4%.
For `C(#CCN1c2ccncc2Sc2ccncc21)CN1CCCC1` [Compound 12], the inhibition at 10 µM [1] was 31.4 ± 1.7% and the inhibition at 10 µM [2] was 20.3 ± 1%.
Work on `C(#CCN1c2ccncc2Sc2ccncc21)CN1CCCCC1` [Compound 13] yielded an inhibition at 10 µM [1] of 37.6 ± 1.6%, an inhibition at 10 µM [2] of 51.6 ± 3.2% and an IC50 [2, 7] of 11.3 ± 0.464 µM.
Work on `CCN(C)CC#CCN1c2ccncc2Sc2ncccc21` [Compound 14] yielded an inhibition at 10 µM [1] of 20.4 ± 1.9% and an inhibition at 10 µM [2] of 7.7 ± 2.1%.
`CCN(CC)CC#CCN1c2ccncc2Sc2ncccc21` [Compound 15] gave an inhibition at 10 µM [1] of 17.2 ± 7.3% and an inhibition at 10 µM [2] of 10.1 ± 3.1%.
Molecule `C(#CCN1c2ccncc2Sc2ncccc21)CN1CCCC1` [Compound 16] has an inhibition at 10 µM [1] of 58.5 ± 9%, an IC50 [1, 5] of 10.4 ± 0.308 µM and an inhibition at 10 µM [2] of 21.9 ± 5.7%.
Work on `CN1CCCCC1CCN1c2ccncc2Sc2ncccc21` (stereo not shown) [Compound 17] yielded an inhibition at 10 µM [1] of 16.1 ± 0.7% and an inhibition at 10 µM [2] of 33 ± 4.5%.
For `O=C1c2ccccc2C(=O)N1CCCN1c2ccncc2Sc2ncccc21` [Compound 18], the inhibition at 10 µM [1] was 30.5 ± 5.7%, the IC50 [2, 5] was 4.26 ± 0.078 µM and the inhibition at 10 µM [2] was 72.2 ± 0.7%.
Work on `Fc1ccc2c(c1)Sc1cc3ccccc3nc1N2` [Compound 19] yielded an inhibition at 10 µM [1] of 81 ± 1.4%, an IC50 [1, 6] of 1.02 ± 0.028 µM and an inhibition at 10 µM [2] of 6.6 ± 1.3%.
`CN1c2ccc(F)cc2Sc2cc3ccccc3nc21` [Compound 20] gave an inhibition at 10 µM [1] of 35.3 ± 12.3% and an inhibition at 10 µM [2] of 3 ± 1.6%.
`NCCCN1c2ccc(F)cc2Sc2cc3ccccc3nc21` [Compound 21] was tested, and the inhibition at 10 µM [1] was 76.3 ± 1.2%, the IC50 [1, 5] was 2.51 ± 0.047 µM and the inhibition at 10 µM [2] was 6.5 ± 2.8%.
In the case of `NCCCCN1c2ccc(F)cc2Sc2cc3ccccc3nc21` [Compound 22], the inhibition at 10 µM [1] is reported as 64.7 ± 1%, the IC50 [1, 5] is reported as 3.93 ± 0.196 µM and the inhibition at 10 µM [2] is reported as 2.3 ± 2.1%.
`Fc1ccc2c(c1)Sc1cc3ccccc3nc1N2CCN1CCCCC1` [Compound 23, 9-Fluoro-6-(1-piperidylethyl)quinobenzothiazine] was tested, and the inhibition at 10 µM [1] was 97.7 ± 0.5%, the IC50 [1, 6] was 0.46 µM and 0.463 µM and the inhibition at 10 µM [2] was 27 ± 2.8%.
`CCN(CC)CC#CCN1c2ccc(SC)cc2Sc2cc3ccccc3nc21` [Compound 24, 6-(4-diethylaminobut-2-ynyl)-9-methylthioquinobenzothiazine] showed an inhibition at 10 µM [1] of 95.5 ± 0.8%, an IC50 [1, 6] of 0.535 ± 0.013 µM and an inhibition at 10 µM [2] of 83.4 ± 1.1%. For the same molecule, the IC50 [2, 7] was 0.784 ± 0.018 µM, the “type of eqBuChE inhibition” value [3] was “noncompetitive” and the “type of eeAChE inhibition” value [4] was “noncompetitive”.
For `CSc1ccc2c(c1)Sc1cc3ccccc3nc1N2CC#CCN1CCCC1` [Compound 25], the inhibition at 10 µM [1] was 99.9 ± 0.7%, the IC50 [1, 6] was 0.506 ± 0.014 µM and the inhibition at 10 µM [2] was 78 ± 1.4%. It also gave an IC50 [2, 7] of 2.22 ± 0.062 µM.
